Where a name gives a salt, the structure may show the parent alone.
Columns and labels:
Format in all cases: physicochemical
[1] = Particle size distribution (d10, d50, d90) by laser diffraction; details: for Particle size d10 / Particle size d50 / Particle size d90: spray dried amorphous ipatasertib monohydrochloride powder
[2] = Solid state by X-ray powder diffraction; details: * indicates absence of crystalline API; monohydrochloride
Glass transition = details: monohydrochloride
[3] = Solubility of ipatasertib
Excerpt: (§1) Whereas poor solubility is often a limiting factor in the development of galenical formulations of other API's (active pharmaceutical ingredient), a high solubility can equally be problematic for the process performance. Due to this very high intrinsic hygroscopicity of the API, ipatasertib drug substance tends to auto-dissolve to a honey-like viscous liquid at increased humidity. Such high solubility and hygroscopicity may pose serious problems for processing as well as for stability and shelf-life of the final product. Therefore, conventional pharmaceutical compositions comprising ipatasertib and processes for the manufacture of pharmaceutical compositions comprising wetting (e.g. wet granulation) are difficult due to the high solubility and high hygroscopicity of the API.

[4] = Hygroscopicity of ipatasertib
Excerpt: as §1

[5] = Mechanical deformation behaviour (brittleness); details: more brittle than lactose
Excerpt: Mechanical compression during tableting of conventional pharmaceutical compositions comprising ipatasertib leads to exhausted compressibility, followed by elastic recovery of the tablet upon decompression. Therefore conventional pharmaceutical compositions comprising ipatasertib monohydrochloride are not suitable for direct compression due to lamination problems (crack formation during decompression) which are detectable as small cracks and fractures of the tablet core (e.g. using X-ray microtomography). Industrially required high-speed tableting processes may not be achievable.

Particle size d10 [1]	Particle size d50 [1]	Particle size d90 [1]	Solid state / Polymorphy (X-Ray, XRPD) [2]	Glass Transition tg (Glass transition)	solubility ([3]; water)	solubility ([3]; water/ethanol 1:1)	hygroscopicity ([4]; at 50% RH)	hygroscopicity ([4]; at 95% RH)	particle size distribution shape ([1]; laser diffraction, monohydrochloride)	brittle deformation characteristics relative to lactose [5]	SMILES
0.7 μm	5.2 μm	10.8 μm	amorphous	132 °C							CC(C)NC[C@@H](C(=O)N1CCN(c2ncnc3c2[C@H](C)C[C@H]3O)CC1)c1ccc(Cl)cc1 [6B′, ipatasertib monohydrochloride]
										3 ×	CC(C)NC[C@@H](C(=O)N1CCN(c2ncnc3c2[C@H](C)C[C@H]3O)CC1)c1ccc(Cl)cc1 [ipatasertib monohydrochloride, (S)-2-(4-chlorophenyl)-1-(4-((5R,7R)-7-hydroxy-5-methyl-6,7-dihydro-5H-cyclopenta[d]pyrimidin-4-yl)piperazin-1-yl)-3-(isopropylamino)propan-1-one as monohydrochloride salt]

The next lines start with the compound.

SMILES	Particle size d10 [1]	Particle size d50 [1]	Particle size d90 [1]	Solid state / Polymorphy (X-Ray, XRPD) [2]	Glass Transition tg (Glass transition)	solubility ([3]; water)	solubility ([3]; water/ethanol 1:1)	hygroscopicity ([4]; at 50% RH)	hygroscopicity ([4]; at 95% RH)	particle size distribution shape ([1]; laser diffraction, monohydrochloride)	brittle deformation characteristics relative to lactose [5]
CC(C)NC[C@@H](C(=O)N1CCN(c2ncnc3c2[C@H](C)C[C@H]3O)CC1)c1ccc(Cl)cc1 [6A′, ipatasertib monohydrochloride]	0.7 μm	3.8 μm	7.5 μm	amorphous	131 °C						
CC(C)NC[C@@H](C(=O)N1CCN(c2ncnc3c2[C@H](C)C[C@H]3O)CC1)c1ccc(Cl)cc1 [ipatasertib, (S)-2-(4-chlorophenyl)-1-(4-((5R,7R)-7-hydroxy-5-methyl-6,7-dihydro-5H-cyclopenta[d]pyrimidin-4-yl)piperazin-1-yl)-3-(isopropylamino)propan-1-one]						> 1 g/g	> 2 g/g	~6%	> 35%		
CC(C)NC[C@@H](C(=O)N1CCN(c2ncnc3c2[C@H](C)C[C@H]3O)CC1)c1ccc(Cl)cc1 [Example 6C, ipatasertib monohydrochloride]	0.7 μm	4.3 μm		amorphous	131 °C					bimodal	
